Test results reported in patent US8247211B2, “Glycopeptide antibiotics” (American Cyanamid Company, priority 2001, dated 2012).

What was measured:
Assay in all cases: In vitro antibacterial evaluation: minimum inhibitory concentration (MIC), broth dilution method
Type in all cases: cell-based
Details in all cases: 18 hours at 35° C.
[1] = system: Enterococcus sp.
Summary of the method: (§1)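 Test strains, among them recent clinical isolates carrying methicillin, penicillin and/or vancomycin resistance, were inoculated at 5×10^5 CFU/mL. A broth dilution series spanning 64-0.06 μg/mL in Muller-Hinton II […] (NCCLS M7-A2) defined the MIC as the lowest growth-inhibiting concentration.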

[2] = system: Escherichia coli
Summary of the method: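 NCCLS M7-A2 broth dilution with Mueller-Hinton II, testing 64-0.06 μg/mL antibiotic against 5×10^5 CFU/mL inocula. Test strains include recent methicillin-, penicillin- or vancomycin-resistant clinical isolates. MIC is the lowest concentration preventing growth.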

[3] = system: Staphylococcus sp.
Summary of the method: as §1

[4] = system: Streptococcus sp.
Summary of the method: as §1

“α-O-[(Heptylamino)carbonyl]-cyclo(glycyl-β-methylphenylalanyl-O-(4-O-hexopyranosylhexopyranosyl)tyrosyl-3-(2-iminoimidazolidin-4-yl)seryl-3-(3-hexopyranosyl-2-iminoimidazolidin-4-yl)serylseryl] [Example 253]” was tested, and the “MIC Enterococcus avium (GC 4558)” value ([1]; Enterococcus avium (GC 4558)) was 64 µg/mL, the “MIC Enterococcus faecalis (ATCC 29212)” value ([1]; Enterococcus faecalis (ATCC 29212)) was >64 µg/mL and the “MIC Enterococcus faecalis (GC 2242)” value ([1]; Enterococcus faecalis (GC 2242)) was >64 µg/mL. For the same substance, the “MIC Enterococcus faecalis (GC 2691)” value ([1]; Enterococcus faecalis (GC 2691)) was >64 µg/mL, the “MIC Enterococcus faecalis (GC 3059)” value ([1]; Enterococcus faecalis (GC 3059)) was >64 µg/mL and the “MIC Enterococcus faecalis (GC 4552)” value ([1]; Enterococcus faecalis (GC 4552)) was >64 µg/mL. The “MIC Enterococcus faecalis (GC 4553)” value ([1]; Enterococcus faecalis (GC 4553)) was >64 µg/mL, the “MIC Enterococcus faecalis (GC 4554)” value ([1]; Enterococcus faecalis (GC 4554)) was >64 µg/mL and the “MIC Enterococcus faecalis (GC 6189)” value ([1]; Enterococcus faecalis (GC 6189)) was >64 µg/mL. The “MIC Enterococcus faecium (GC 2243)” value ([1]; Enterococcus faecium (GC 2243)) was >64 µg/mL, the “MIC Enterococcus faecium (GC 4556)” value ([1]; Enterococcus faecium (GC 4556)) was >64 µg/mL and the “MIC Enterococcus faecium (GC 4557)” value ([1]; Enterococcus faecium (GC 4557)) was 32 µg/mL. The “MIC Enterococcus faecalis (ATCC 29212)” value ([1]; broth dilution, strain ATCC 29212) was >64 µg/mL, the “MIC Enterococcus faecalis (GC 2242)” value ([1]; broth dilution, strain GC 2242) was >64 µg/mL and the “MIC Enterococcus faecium (GC 2243)” value ([1]; broth dilution, strain GC 2243) was >64 µg/mL. The “MIC Enterococcus faecalis (GC 2691)” value ([1]; broth dilution, strain GC 2691) was >64 µg/mL, the “MIC Enterococcus faecalis (GC 3059)” value ([1]; broth dilution, strain GC 3059) was >64 µg/mL and the “MIC Enterococcus faecalis (GC 4552)” value ([1]; broth dilution, strain GC 4552) was >64 µg/mL. For the same substance, the “MIC Enterococcus faecalis (GC 4553)” value ([1]; broth dilution, strain GC 4553) was >64 µg/mL, the “MIC Enterococcus faecalis (GC 4554)” value ([1]; broth dilution, strain GC 4554) was >64 µg/mL and the “MIC Enterococcus faecium (GC 4556)” value ([1]; broth dilution, strain GC 4556) was >64 µg/mL. For the same substance, the “MIC Enterococcus faecium (GC 4557)” value ([1]; broth dilution, strain GC 4557) was 32 µg/mL, the “MIC Enterococcus avium (GC 4558)” value ([1]; broth dilution, strain GC 4558) was 64 µg/mL and the “MIC Enterococcus faecalis (GC 6189)” value ([1]; broth dilution, strain GC 6189) was >64 µg/mL. For the same substance, the “MIC Escherichia coli (ATCC 25922)” value ([2]; Escherichia coli (ATCC 25922)) was >64 µg/mL, the “MIC Escherichia coli (GC 4559)” value ([2]; Escherichia coli (GC 4559)) was >64 µg/mL and the “MIC Escherichia coli (GC 4560)” value ([2]; Escherichia coli (GC 4560)) was 2 µg/mL. For the same substance, the “MIC Coagulase Negative Staphylococcus (GC 4547)” value ([3]; Coagulase Negative Staphylococcus (GC 4547)) was 64 µg/mL, the “MIC Coagulase Negative Staphylococcus (GC 4548)” value ([3]; Coagulase Negative Staphylococcus (GC 4548)) was 64 µg/mL and the “MIC Coagulase Negative Staphylococcus (GC 4549)” value ([3]; Coagulase Negative Staphylococcus (GC 4549)) was 64 µg/mL. For the same substance, the “MIC Coagulase Negative Staphylococcus (GC 4551)” value ([3]; Coagulase Negative Staphylococcus (GC 4551)) was >64 µg/mL, the “MIC Coagulase Negative Staphylococcus (GC 6257)” value ([3]; Coagulase Negative Staphylococcus (GC 6257)) was 32 µg/mL and the “MIC Staphylococcus aureus (ATCC 29213)” value ([3]; Staphylococcus aureus (ATCC 29213)) was >64 µg/mL. The “MIC Staphylococcus aureus (GC 1131)” value ([3]; Staphylococcus aureus (GC 1131)) was >64 µg/mL, the “MIC Staphylococcus aureus (GC 3051)” value ([3]; Staphylococcus aureus (GC 3051)) was >64 µg/mL and the “MIC Staphylococcus aureus (GC 3053)” value ([3]; Staphylococcus aureus (GC 3053)) was >64 µg/mL. The “MIC Staphylococcus aureus (GC 4541)” value ([3]; Staphylococcus aureus (GC 4541)) was 64 µg/mL, the “MIC Staphylococcus aureus (GC 4542)” value ([3]; Staphylococcus aureus (GC 4542)) was >64 µg/mL and the “MIC Staphylococcus aureus (GC 4544)” value ([3]; Staphylococcus aureus (GC 4544)) was >64 µg/mL. The “MIC Staphylococcus aureus (GC 4545)” value ([3]; Staphylococcus aureus (GC 4545)) was 64 µg/mL, the “MIC Staphylococcus aureus-SMITH (GC 4543)” value ([3]; Staphylococcus aureus-SMITH (GC 4543)) was 64 µg/mL and the “MIC Staphylococcus haemolyticus (GC 4546)” value ([3]; Staphylococcus haemolyticus (GC 4546)) was 64 µg/mL. For the same substance, the “MIC Staphylococcus aureus (ATCC 29213)” value ([3]; broth dilution, strain ATCC 29213) was >64 µg/mL, the “MIC Staphylococcus aureus (GC 1131)” value ([3]; broth dilution, strain GC 1131) was >64 µg/mL and the “MIC Staphylococcus aureus (GC 3051)” value ([3]; broth dilution, strain GC 3051) was >64 µg/mL. For the same substance, the “MIC Staphylococcus aureus (GC 3053)” value ([3]; broth dilution, strain GC 3053) was >64 µg/mL, the “MIC Staphylococcus aureus (GC 4541)” value ([3]; broth dilution, strain GC 4541) was 64 µg/mL and the “MIC Staphylococcus aureus (GC 4542)” value ([3]; broth dilution, strain GC 4542) was >64 µg/mL. For the same substance, the “MIC Staphylococcus aureus-SMITH (GC 4543)” value ([3]; broth dilution, strain GC 4543) was 64 µg/mL, the “MIC Staphylococcus aureus (GC 4544)” value ([3]; broth dilution, strain GC 4544) was >64 µg/mL and the “MIC Staphylococcus aureus (GC 4545)” value ([3]; broth dilution, strain GC 4545) was 64 µg/mL. The “MIC Staphylococcus haemolyticus (GC 4546)” value ([3]; broth dilution, strain GC 4546) was 64 µg/mL, the “MIC Coagulase Negative Staphylococcus (GC 4547)” value ([3]; broth dilution, strain GC 4547) was 64 µg/mL and the “MIC Coagulase Negative Staphylococcus (GC 4548)” value ([3]; broth dilution, strain GC 4548) was 64 µg/mL. The “MIC Coagulase Negative Staphylococcus (GC 4549)” value ([3]; broth dilution, strain GC 4549) was 64 µg/mL, the “MIC Coagulase Negative Staphylococcus (GC 4551)” value ([3]; broth dilution, strain GC 4551) was >64 µg/mL and the “MIC Coagulase Negative Staphylococcus (GC 6257)” value ([3]; broth dilution, strain GC 6257) was 32 µg/mL. The “MIC Streptococcus agalactiae (GC 4564)” value ([4]; Streptococcus agalactiae (GC 4564)) was 32 µg/mL, the “MIC Streptococcus pneumoniae (ATCC 6301)” value ([4]; Streptococcus pneumoniae (ATCC 6301)) was 16 µg/mL and the “MIC Streptococcus pneumoniae (GC 1894)” value ([4]; Streptococcus pneumoniae (GC 1894)) was 8 µg/mL. The “MIC Streptococcus pneumoniae (GC 4565)” value ([4]; Streptococcus pneumoniae (GC 4565)) was 16 µg/mL, the “MIC Streptococcus pyogenes (GC 4563)” value ([4]; Streptococcus pyogenes (GC 4563)) was 32 µg/mL and the “MIC Streptococcus pneumoniae (ATCC 6301)” value ([4]; broth dilution, strain ATCC 6301) was 16 µg/mL. For the same substance, the “MIC Streptococcus pneumoniae (GC 1894)” value ([4]; broth dilution, strain GC 1894) was 8 µg/mL, the “MIC Streptococcus pyogenes (GC 4563)” value ([4]; broth dilution, strain GC 4563) was 32 µg/mL and the “MIC Streptococcus agalactiae (GC 4564)” value ([4]; broth dilution, strain GC 4564) was 32 µg/mL. The “MIC Streptococcus pneumoniae (GC 4565)” value ([4]; broth dilution, strain GC 4565) was 16 µg/mL.
